Three molecules from paper PMC8087847, “Effects of self-assembled cell-penetrating peptides and their nano-complexes on ABCB1 expression and activity” (Iranian Journal of Basic Medical Sciences, 2021) can be followed below.

The subject of data set [1] is A549 Dox-resistant cells. Briefly: MTT cell viability, effect of CPPs on Dox cytotoxicity.
Experimental: (§1) A549 cell line is derived from a drug-resistant human lung carcinoma tissue and adherent in culture. […] It was cultured in RPMI-1640 medium supplemented with 10% FBS, 100 units/ml penicillin, and 100 µg/ml streptomycin at 37 °C in 5% CO2 a humidified atmosphere. Moreover, to develop resistance, 0.1 µM Dox was added to the medium which was not toxic to the cells.
(§2) Cells were detached from flasks by trypsin and seeded in 96-well plates with a cell density of 1.5×10^4 cells/well (containing 200 μl/well of medium) and incubated for 24 hr at 37 °C in a humidified atmosphere of 5% CO2. The next day, cells were treated with different concentrations of peptides (15, 25, 50 μM), and incubated at the same condition for 24 hr. […] Data were collected from at least 3 independent experiments performed in triplicates and analyzed using the Graphpad Prism 7 software package.
Data set [2] relates to A549 cells. In words: Cellular uptake of FAM-labeled peptides by flow cytometry. Conditions: different concentrations, comparison stated in discussion. (In general: A flow cytometer gives signals particle by particle.)
Experimental: (§3) First, cells were seeded in 6-well plates (3×10^5 cells/well) and incubated for 24 hr. Then the medium was removed and cells were washed with PBS. FAM-labeled peptides and nano-complexes were added to wells and incubation was continued for 90 min. The old medium was removed and cells were washed with PBS three times and detached by trypsin/EDTA. Then 2 ml of medium was added to each well, and cells were centrifuged for 5 min, followed by washing three times with PBS and finally suspended in flow cytometry buffer to study the cellular uptake of FAM-labeled peptides and nano-complexes.
Data set [3] relates to A549 Dox-resistant cells.
Experimental: as §1, §2
The test system of data set [4] is A549 cells.
Experimental: as §3

“Also recorded” adds a separate entry of the source. Like-named read-outs stand apart in the source and are kept apart here. No end group written: not given here.

One may read the IC50 as the concentration that inhibits the measured activity by half. Take `COc1cccc2c1C(=O)c1c(O)c3c(c(O)c1C2=O)C[C@@](O)(C(=O)CO)C[C@@H]3O[C@H]1C[C@H](N)[C@H](O)[C@H](C)O1` [Dox, Doxorubicin, reference compound]: the IC50 in data set [1] (Homo sapiens, A549, read-out: IC50 of Dox) was 20 µM.

`N=C(N)NCCC[C@H](NC(=O)[C@H](CCCNC(=N)N)NC(=O)[C@H](CCCNC(=N)N)NC(=O)[C@H](CCCNC(=N)N)NC(=O)[C@H](CCCNC(=N)N)NC(=O)[C@H](CCCNC(=N)N)NC(=O)[C@H](CCCNC(=N)N)NC(=O)[C@H](CCCNC(=N)N)NC(=O)[C@H](CCCNC(=N)N)NC(=O)[C@@H](N)CCCNC(=N)N)C(=O)O` [Peptide P7]: the “effect on Dox cytotoxicity” value is recorded as “resulted in Dox cytotoxicity; also recorded: increased the Dox toxicity” in data set [1] (25 µM and 50 µM peptide, 20 µM Dox, 24 hr (Figure 3a), MTT); “increased Dox cytotoxicity” in data set [1] (after 48 hr, peptide concentration not stated (abstract)). In data set [1] (50 µM peptide, 20 µM Dox, after 48 hr (Figure 3b), MTT), the “effect on cytotoxicity of Dox” value was “increased the cytotoxicity of Dox”. The “cellular uptake (discussion, method not specified)” value in data set [2] is listed as “higher uptake efficacy”.

Broadly, the cell viability is a read-out of living cells in per cent, often relative to untreated cells. As to KKKKKKKKKK [Peptide P8], in data set [1] (15 µM peptide 24 hr pre-treatment, then 20 µM Dox, 24 hr, MTT, at least 3 independent experiments in triplicates), the cell viability was 52.5%. Moreover, in data set [3], the “effect on Dox cytotoxicity” value is “increased Dox cytotoxicity”. The “cellular uptake (discussion, method not specified)” value in data set [4] is “higher uptake compared with P8/E10 nano-complexes”.
